Results on 17 compounds are retold here after ChEMBL document CHEMBL4613209, “Quinolone hybrids and their anti-cancer activities: An overview” (Eur J Med Chem, 2019).

The structures appear in SMILES notation.

In general, IC50 refers to the midpoint of a concentration-inhibition curve.

Assay [1] has as its system HL-60. Description: Antiproliferative activity against human HL60 cells by MTT assay. The assay is classed as functional, cell-based. Background: Tetrazolium assays rely on reduction of a dye to a coloured formazan, in cell work by metabolically active cells.
Assay [2] has as its system SMMC-7721. The assay is described as follows: Antiproliferative activity against human SMMC7721 cells by MTT assay. It is filed as functional, cell-based.
In assay [3] the test system is L1210. Description: Antiproliferative activity against mouse L1210 cells by MTT assay. It is filed as functional, cell-based.
Assay [4] concerns EJ. The assay is described as follows: Cytotoxicity against human EJ cells assessed as reduction in cell viability by MTT assay. The assay is classed as functional, cell-based.
The test system of assay [5] is MCF7. Description: Cytotoxicity against human MCF7 cells assessed as reduction in cell viability by MTT assay. The assay is classed as functional, cell-based.
For assay [6], the system named is SW480. The assay is described as follows: Cytotoxicity against human SW480 cells assessed as reduction in cell viability by MTT assay. The assay is classed as functional, cell-based.
Assay [7] has as its system A-431. Description: Cytotoxicity against human A431 cells assessed as reduction in cell viability by MTT assay. The assay is classed as functional, cell-based.
Assay [8] deals with HL-60. The assay is described as follows: Antiproliferative activity against human HL60 cells after 72 hrs by MTT assay. It is filed as functional, cell-based. As to conditions: HL-60, 72 h.
Assay [9] deals with SK-MEL3. The assay is described as follows: Cytotoxicity against human SK-MEL-3 cells assessed as reduction in cell viability by MTT assay. It is filed as functional, cell-based.
The subject of assay [10] is A549. The assay is described as follows: Antiproliferative activity against human A549 cells after 72 hrs by MTT assay. It is filed as functional, cell-based. As to conditions: A549, 72 h.
For assay [11], the system named is PC-3. The assay is described as follows: Cytotoxicity against human PC3 cells assessed as reduction in cell viability. The assay is classed as functional, cell-based.
The subject of assay [12] is GES1. The assay is described as follows: Cytotoxicity against human GES-1 cells assessed as reduction in cell viability. It is filed as cell-based.
Assay [13] has as its system MGC-803. Description: Cytotoxicity against human MGC803 cells assessed as reduction in cell viability. The assay is classed as functional, cell-based.
Assay [14] concerns HepG2. Description: Cytotoxicity against human HepG2 cells assessed as reduction in cell viability. It is filed as functional, cell-based.
For assay [15], the system named is NCI-H460. Description: Cytotoxicity against human NCI-H460 cells assessed as reduction in cell viability. It is filed as functional, cell-based.
Assay [16] has as its system MCF7. The assay is described as follows: Cytotoxicity against human MCF7 cells assessed as reduction in cell viability. The assay is classed as functional, cell-based.
The test system of assay [17] is SW-620. Description: Cytotoxicity against human SW620 cells assessed as reduction in cell viability. The assay is classed as functional, cell-based.

Take `COc1ccccc1C1=NN=C2C(F)=Cc3c(n(C4CC4)cc(C(=O)O)c3=O)N2C1`: the 50% inhibitory concentration (IC50) in assay [1], in [2] and in assay [3] was 1000 to 48600 nM throughout.

Regarding `Nc1cccc(C2=NN=C3C(F)=Cc4c(n(C5CC5)cc(C(=O)O)c4=O)N3C2)c1`, the half-inhibitory concentration (IC50) in assay [1], in assay [2] and in assay [3] was 1000 to 48600 nM each time.

As for `O=C(O)c1cn(C2CC2)c2c(c1=O)C=C(F)C1=NN=C(c3ccc(O)cc3)CN12`, the half-inhibitory concentration (IC50) in [1], in assay [2] and in [3] was 1000 to 48600 nM in each case.

As to `CCn1cc(C(=O)O)c(=O)c2cc(F)c(N3CCNCC3)cc21` [NORFLOXACIN], the IC50 in assay [4] is 137000 to 238000 nM; in [5] it was 137000 to 238000 nM; in assay [6], 137000 to 238000 nM; in assay [7], 137000 to 238000 nM; in assay [8], greater than 302 nM; in [9] it was 137000 to 238000 nM. Further, in assay [10], the IC50 is greater than 302 nM.

Turning to `N=C(NS(=O)(=O)c1ccc(C(F)(F)F)cc1)N1CCN(c2cc3c(cc2F)c(=O)c(C(=O)O)cn3C2CC2)CC1`, the IC50 in [8] and in assay [10] was 32 to 161 nM in each case.

Regarding `CCc1c2c(nc3ccc(OC(=O)N4CCC(N5CCCCC5)CC4)cc13)-c1cc3c(c(=O)n1C2)COC(=O)[C@]3(O)CC` [IRINOTECAN], the IC50 in assay [8] lay in the range of 32 to 44 nM.

For the compound `C[C@H]1COc2c(N3CCN(C)CC3)c(F)cc3c(=O)c(-c4nnc(NC(=O)CCCCCC(=O)O)s4)cn1c23`, the 50% inhibitory concentration (IC50) is 1100 to 14300 nM in assay [11]; greater than 81500 nM in assay [12]; 1100 to 14300 nM in [13]; 1100 to 14300 nM in assay [14]; 1100 to 14300 nM in [15]; 1100 to 14300 nM in [16]. In addition, the half-maximal inhibitory concentration (IC50) in assay [17] was 1100 to 14300 nM.

As for `CCn1cc(C(=O)O)c(=O)c2cc(F)c(N3CCN(C(=N)NS(=O)(=O)c4ccc(C(F)(F)F)cc4)CC3)cc21`, the IC50 in assay [8] and in assay [10] was 32 to 161 nM throughout.

Take `Cc1ccc(S(=O)(=O)NC(=N)N2CCN(c3cc4c(cc3F)c(=O)c(C(=O)O)cn4C3CC3)CC2)cc1`: the IC50 in assay [8] and in [10] was 32 to 161 nM throughout.

For the compound `C[C@H]1COc2c(N3CCN(C)CC3)c(F)cc3c(=O)c(-c4nnc(NC(=O)CCCCCC(=O)NO)s4)cn1c23`, the concentration for half-maximal inhibition (IC50) in assay [11] is 19 to 127 nM; in assay [12], greater than 81500 nM; in [13] it was 19 to 127 nM; in [14], 19 to 127 nM; in assay [15], 19 to 127 nM; in [16] it was 19 to 127 nM. The IC50 in assay [17] fell in the range of 19 to 127 nM.

Consider `CCn1cc(C(=O)O)c(=O)c2cc(F)c(N3CCN(C(=N)NS(=O)(=O)c4ccccc4)CC3)cc21`, for which the half-maximal inhibitory concentration (IC50) in [8] and in assay [10] was 32 to 161 nM each time.

For `C[C@H]1COc2c(N3CCN(C)CC3)c(F)cc3c(=O)c(-c4nnc(NC(=O)CCCCCCCCC(=O)O)s4)cn1c23`, the IC50 in [11] was 1100 to 14300 nM; in [12], greater than 81500 nM; in assay [13] it was 1100 to 14300 nM; in assay [14], 1100 to 14300 nM; in [15] it was 1100 to 14300 nM; in assay [16], 1100 to 14300 nM. In addition, the half-inhibitory concentration (IC50) in assay [17] was 1100 to 14300 nM.

As to `N=C(NS(=O)(=O)c1ccccc1Cl)N1CCN(c2cc3c(cc2F)c(=O)c(C(=O)O)cn3C2CC2)CC1`, the IC50 in [8] and in assay [10] was 32 to 79 nM throughout.

Turning to `C[C@H]1COc2c(N3CCN(C)CC3)c(F)cc3c(=O)c(-c4nnc(NC(=O)CCCCCCC(=O)Nc5ccccc5N)s4)cn1c23`, the IC50 was 46 to 203 nM in assay [11]; greater than 81500 nM in assay [12]; 46 to 203 nM in assay [13]; 46 to 203 nM in assay [14]; 46 to 203 nM in [15]; 46 to 203 nM in assay [16]. In addition, the IC50 in assay [17] fell in the range of 46 to 203 nM.

`N=C(NS(=O)(=O)c1ccccc1C(F)(F)F)N1CCN(c2cc3c(cc2F)c(=O)c(C(=O)O)cn3C2CC2)CC1`: the IC50 in [8] and in [10] was 32 to 161 nM in each case.

Take `C[C@H]1COc2c(N3CCN(C)CC3)c(F)cc3c(=O)c(-c4nnc(NC(=O)CCCCCCCCC(=O)NO)s4)cn1c23`: the IC50 in [11] was 19 to 127 nM; in [12], greater than 81500 nM; in [13], 19 to 127 nM; in assay [14], 19 to 127 nM; in assay [15], 19 to 127 nM; in assay [16], 19 to 127 nM. Also, in assay [17], the IC50 was 19 to 127 nM.

Consider `C[C@H]1COc2c(N3CCN(C)CC3)c(F)cc3c(=O)c(-c4nnc(NC(=O)CCCCC(=O)NO)s4)cn1c23`, for which the IC50 in [11] was 19 to 127 nM; in assay [12], greater than 81500 nM; in assay [13], 19 to 127 nM; in [14], 19 to 127 nM; in [15], 19 to 127 nM; in assay [16], 19 to 127 nM. Further, in [17], the IC50 lay in the range of 19 to 127 nM.
